From paper PMC12434668 (Journal of Medicinal Chemistry, 2025) come the findings set out here.

Each structure is given as a SMILES string. Where two headings read alike, the source gives them in different places. A value given as a limit tells only on which side of the number the result lay.

One data set deals with T1, Mcl-1 (Homo sapiens, UniProt Q07820).
T1 construct: Briefly, a previously reported construct was subcloned into an expression vector (pDEST-HisMBP); MBP (from vector pDEST-HisMBP); made in house; host or cells: Escherichia coli BL21 CodonPlus (DE3) RIL
Put plainly: TR-FRET binding assay (FITC-Bak peptide competition). An excerpt:
Protein preparation was described previously. Briefly, a previously reported construct was subcloned into an expression vector (pDEST-HisMBP) expressed in Escherichia coli BL21 CodonPlus (DE3) RIL (Stratagene) and purified through nickel-column and size-exclusion chromatography sequentially.
Mixtures containing vehicle without compound served as a negative control, while mixtures containing no protein served as a positive control. […] Two or more repeats were obtained and average K i values are reported.

The test system of a further data set is NCI-H929 cells. Put plainly: In vitro proliferation assay (CellTiter-Glo), H929. To be noted: Homo sapiens. Type of data set: cell-based. The protocol:
(§1) NCI-H929, A427, and K562 cell lines were obtained from ATCC. NCI-H929 cells were cultured in RPMI1640 (ATCC-formulated, Catalog No. 30-2001) + 10% fetal calf serum (FCS, GIBCO BRL, Cat. No. 26140) + 0.05 mM mercaptoethanol. A-427 cells were cultured in RPMI1640 (ATCC-formulated, Catalog No. 30-2001) + 10% fetal calf serum (FCS, GIBCO BRL, Cat. No. 26140). K562 cell lines were cultured in Iscove’s Modified Dulbecco Medium (Gibco-formulated, purchased from Thermo-Fisher, Cat. No. 12440-053) + 10% fetal bovine serum (FBS, Sigma-Aldrich, F2442). All cell lines were cultured at 37 °C with 5% CO2 in a humidified incubator and have been regularly tested negatively for mycoplasm contamination.
(§2) Cells were seeded at 750–1500 cells per well (depending on growth kinetics) in 384-well plates (Corning, Catalog No. 3707) or at 3000 cells per well in 96-well plates in the respective growth medium and allowed to settle overnight. Suspension cells were plated immediately before compound addition. Adherent cell lines were incubated overnight at 37 °C in a tissue culture incubator prior to compound addition. Compounds were added in triplicates using an HP D300e Digital Dispenser (Hewlett-Packard) or manually at the concentrations indicated and total volumes were normalized using DMSO backfill, with final DMSO concentration of 0.5%. Control wells were treated with DMSO only. Following incubation for 72 or 96 h, a Cell Titer-Glo assay was conducted following the manufacturer recommendations (Promega, G9243) and luminescence was measured using a Victor X5 (PerkinElmer) or a Cytation 3 (Biotek) plate reader. % Viability was defined as relative luminescence units (RLU) of each well divided by the RLU of cells on day 0. Four parameter sigmoidal dose–response curves were generated and IC50 values were determined using XLFit (IDBS) software (eq 205) or in-house software. Drug combination experiments were performed in 96-well or 384-well format and drug synergy was determined using the BLISS model (PMID: 26171228).
For orientation: Cellular ATP, detected with luciferase, serves as a proxy for viable cell number.

A further data set concerns A427 cells. In words: In vitro proliferation assay (CellTiter-Glo), A427. Type of data set: cell-based. To be noted: Homo sapiens, A-427. Here is the method: as §1, §2
In the next data set the test system is K562 cells. In words: In vitro proliferation counterscreen, Mcl-1 insensitive K562. Type of data set: cell-based. To be noted: Homo sapiens; Mcl-1 insensitive K562; top concentration tested 12.5 µM. The protocol: NCI-H929, A427, and K562 cell lines were obtained from ATCC.
Suspension cells were plated immediately before compound addition. Adherent cell lines were incubated overnight at 37 °C in a tissue culture incubator prior to compound addition. Compounds were added in triplicates using an HP D300e Digital Dispenser (Hewlett-Packard) or manually at the concentrations indicated and total volumes were normalized using DMSO backfill, with final DMSO concentration of 0.5%. Control wells were treated with DMSO only. Following incubation for 72 or 96 h, a Cell Titer-Glo assay was conducted following the manufacturer recommendations (Promega, G9243) and luminescence was measured using a Victor X5 (PerkinElmer) or a Cytation 3 (Biotek) plate reader. % Viability was defined as relative luminescence units (RLU) of each well divided by the RLU of cells on day 0.

The subject of data set [1] is caspase 3/7 in H929 cells. In words: Caspase 3/7 induction assay (Caspase-Glo), H929. Type of data set: cell-based. Particulars: compound treatment for 3 h; for EC50: Homo sapiens, NCI-H929. Here is the method:
(§3) Cells were treated with a 10-point compound titration and incubated at 37 °C for 3 h.

Data set [2] relates to caspase 3/7 in A427 cells. In words: Caspase 3/7 induction assay (Caspase-Glo), A427. It is filed as cell-based. To be noted: compound treatment for 3 h; for EC50: Homo sapiens, A-427. The protocol: as §3
The test system of data set [3] is caspase 3/7 in K562 cells. In words: Caspase 3/7 induction assay (Caspase-Glo), K562. It is filed as cell-based. Particulars: compound treatment for 3 h; for EC50: Homo sapiens, K562. Here is the method: as §3
A short description of data set [4]: Mouse pharmacokinetic analyses (i.v. and oral). It is filed as in vivo. To be noted: plasma, iv. The protocol: For PK analysis, mice were administered intravenously or orally with compound formulated in 10% ethanol and 10% Cremophor EL. Compound 13 dosing was also screened with 20% Phosphal IPG, 20% Phosphal MCT, 10% HP-β-CD, and 40% HP-β-CD. Plasma samples were obtained at predefined time points and compound concentrations in plasma were measured by quantitative HPLC–MS/MS using an internal standard. Calibration and quality control samples were prepared using blank plasma from untreated animals. Samples were precipitated with acetonitrile and injected into a HPLC system (Agilent 1200). Separation was performed by gradients of 5 mmol/L ammonium acetate pH 5.0 and acetonitrile with 0.1% formic acid on a Luna C8 reversed-phase column with 2.5 μm particles (Phenomenex). The HPLC was interfaced by ESI operated in positive ionization mode to a triple quadrupole mass spectrometer (6500+ Triple Quad System, SCIEX) operated in multiple reaction monitoring mode. Chromatograms were analyzed with Analyst (SCIEX) and pharmacokinetic parameters were calculated by noncompartmental analysis using proprietary software.

Where [5] appears, read: in the presence of 1% fetal bovine serum, average of at least n = 2, read-out: TRFRET, Mcl-1 Ki.
Where [6] appears, read: H929 cell line, average of at least n = 2, triplicate.
The mark [7] stands for this setting: A427 cell line, average of at least n = 2, triplicate.
The mark [8] stands for this setting: dosed at 20 mg/kg, read-out: i.v. mouse CL.
The mark [9] stands for this setting: supplementary CSV, unit not given (Table 1: 20 mg/kg, 14 and 16 at 10 mg/kg), read-out: CL.
The mark [10] stands for this setting: supplementary CSV, unit inferred, read-out: Ki TRFRET.
The mark [11] stands for this setting: supplementary CSV, unit inferred.

T1 sequence (Q07820 whole entry): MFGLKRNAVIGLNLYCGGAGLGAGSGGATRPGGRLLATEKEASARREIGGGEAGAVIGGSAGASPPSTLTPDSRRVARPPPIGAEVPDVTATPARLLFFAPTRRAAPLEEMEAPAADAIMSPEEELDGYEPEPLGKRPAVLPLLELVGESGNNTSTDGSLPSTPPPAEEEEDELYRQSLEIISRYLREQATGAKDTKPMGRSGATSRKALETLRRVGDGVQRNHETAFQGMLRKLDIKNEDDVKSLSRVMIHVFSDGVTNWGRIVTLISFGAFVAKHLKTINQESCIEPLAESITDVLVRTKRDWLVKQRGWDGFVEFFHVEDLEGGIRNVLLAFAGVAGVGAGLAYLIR

On to `COc1c(OCC2CCOCC2)cc2c3c1cc(C(=O)O)n3CCCOCc1nn(C)cc1-c1c(Cl)ccc3c(CCCOc4cc(C)c(Cl)c(C)c4)c4n(c13)[C@H](C)CN2C4=O` [Compound 20, (2^63^4 S a ,1^72^2 R a ,2^4 R)-2^7-Chloro-2^10-(3-(4-chloro-3,5-dimethylphenoxy)propyl)-1^4-methoxy-2^4,3^1-dimethyl-2^1-oxo-1^5-((tetrahydro-2H-pyran-4-yl)methoxy)-2^1,2^2,2^3,2^4-tetrahydro-1^1 H,3^1 H-5-oxa-2(2,6)-pyrazino[1,2-a]indola-1(7,1)-indola-3(4,3)-pyrazolacyclooctaphane-1^2-carboxylic Acid], for which, at Mcl-1 (setting [5]), the Ki was 0.08 ± 0.02 nM. Besides, the GI50 is 31 ± 13 nM with NCI-H929 cells (setting [6]), 55 ± 26 nM with A427 cells (setting [7]) and more than 12500 nM with K562 cells. The figures for the EC50 in data set [1], in data set [2] and in data set [3] were 23 nM, 31 nM and more than 3120 nM, respectively. The “H929 Caspase 3/7 maximum activity, fold over vehicle (FoV)” value in data set [1] worked out at 16 fold. Besides, in data set [2], the “A427 Caspase 3/7 fold over vehicle (FoV)” value was found to be 14 fold. Further, the “K562 Caspase 3/7 fold over vehicle (FoV)” value in data set [3] turned out to be 1.3 fold. Also, the clearance in data set [4] (setting [8]) and in data set [4] (setting [9]) was 8.9 mL/min/kg throughout.
For the molecule `COc1cc(N2C[C@@H](C)n3c(c(CCCOc4cc(C)c(Cl)c(C)c4)c4ccc(Cl)c(-c5c(C)nn(C)c5C)c43)C2=O)c2c(cc(C(=O)O)n2C)c1OC` [Compound 9], the clearance in data set [4] (setting [8]) and in data set [4] (setting [9]) was 70 mL/min/kg each time.
As to `COc1c(OCC2CCOCC2)cc(N2C[C@@H](C)n3c(c(CCCOc4cc(C)c(Cl)c(C)c4)c4ccc(Cl)c(-c5c(C)nc(C)nc5C)c43)C2=O)c2c1cc(C(=O)N(C)C)n2C` [Compound 24, (R)-7-(7-chloro-10-(3-(4-chloro-3,5-dimethylphenoxy)propyl)-4-methyl-1-oxo-6-(2,4,6-trimethylpyrimidin-5-yl)-3,4-dihydropyrazino[1,2-a]indol-2(1H)-yl)-4-methoxy-N,N,1-trimethyl-5-((tetrahydro-2H-pyran-4-yl)methoxy)-1H-indole-2-carboxamide], the Ki on Mcl-1 (setting [5]) is 105 ± 8 nM. The concentration for 50% growth inhibition (GI50) with NCI-H929 cells (setting [6]) is 1100 ± 380 nM; with A427 cells (setting [7]), 3600 ± 140 nM; in the data set with K562 cells, more than 12500 nM. In addition, the clearance in data set [4] (setting [8]) and in data set [4] (setting [9]) was 2 mL/min/kg in each case.
On to `COc1cc2c3c(cc(C(=O)O)n3CCCOCc3c(c(C)nn3C)-c3c(Cl)ccc4c(CCCOc5cc(C)c(Cl)c(C)c5)c5n(c34)[C@H](C)CN2C5=O)c1OC` [Compound 11, (2^63^4 S a ,1^72^2 R a ,2^4 R)-2^7-Chloro-2^10-(3-(4-chloro-3,5-dimethylphenoxy)propyl)-1^4,1^5-dimethoxy-2^4,3^1,3^3-trimethyl-2^1-oxo-2^1,2^2,2^3,2^4-tetrahydro-1^1 H,3^1 H-5-oxa-2(2,6)-pyrazino[1,2-a]indola-1(7,1)-indola-3(4,5)-pyrazolacyclooctaphane-1^2-carboxylic Acid], for which the results for the Ki on Mcl-1 (setting [5]) and on Mcl-1 (setting [10]) were 0.08 ± 0.01 nM and 0.04 nM, respectively. Further, the GI50 was 24 nM with NCI-H929 cells (setting [11]), 64 nM in the data set on A427 cells (setting [11]) and more than 12500 nM in the data set with K562 cells.
Take `COc1cc2c3c(cc(C(=O)O)n3CCCOCc3nn(C)cc3-c3cccc4c(CCCOc5cc(C)c(Cl)c(C)c5)c5n(c34)[C@H](C)CN2C5=O)c1OC` [Compound 23, (2^63^4 R a ,1^72^2 R a ,2^4 R)-2^10-(3-(4-Chloro-3,5-dimethylphenoxy)propyl)-1^4,1^5-dimethoxy-2^4,3^1-dimethyl-2^1-oxo-2^1,2^2,2^3,2^4-tetrahydro-1^1 H,3^1 H-5-oxa-2(2,6)-pyrazino[1,2-a]indola-1(7,1)-indola-3(4,3)-pyrazolacyclooctaphane-1^2-carboxylic Acid]: the Ki at Mcl-1 (setting [5]) was less than 0.08 nM; at Mcl-1 (setting [10]), less than 0.02 nM. The GI50 in the data set with NCI-H929 cells (setting [6]) was 15 ± 4 nM; in the data set with A427 cells (setting [7]), 32 ± 4 nM; with K562 cells, more than 12500 nM.
As to `COc1cc2c3c(cc(C(=O)O)n3CCCCOCc3nn(C)c(C)c3-c3c(Cl)ccc4c(CCCOc5cc(C)c(Cl)c(C)c5)c5n(c34)[C@H](C)CN2C5=O)c1OC` [Compound 12, (2^63^4 S a ,1^72^2 R a ,24R)-2^7-Chloro-2^10-(3-(4-chloro-3,5-dimethylphenoxy)propyl)-1^4,1^5-dimethoxy-2^4,3^1,3^5-trimethyl-2^1-oxo-2^1,2^2,2^3,2^4-tetrahydro-1^1 H,3^1 H-5-oxa-2(2,6)-pyrazino[1,2-a]indola-1(7,1)-indola-3(4,3)-pyrazolacyclononaphane-1^2-carboxylic Acid], on Mcl-1 (setting [10]), the Ki came to 0.12 nM. Besides, the GI50 was 39 nM in the data set on NCI-H929 cells (setting [11]), 87 nM with A427 cells (setting [11]) and more than 7800 nM with K562 cells.
With `COc1cc2c3c(c1)cc(C(=O)O)n3CCCOCc1nn(C)cc1-c1c(Cl)ccc3c(CCCOc4cc(C)c(Cl)c(C)c4)c4n(c13)[C@H](C)CN2C4=O` [Compound 15, (2^63^4 S a ,1^72^2 R a ,2^4 R)-2^7-Chloro-2^10-(3-(4-chloro-3,5-dimethylphenoxy)propyl)-1^5-methoxy-2^4,3^1-dimethyl-2^1-oxo-2^1,2^2,2^3,2^4-tetrahydro-1^1 H,3^1 H-5-oxa-2(2,6)-pyrazino[1,2-a]indola-1(7,1)-indola-3(4,3)-pyrazolacyclooctaphane-1^2-carboxylic Acid], the Ki is less than 0.08 nM at Mcl-1 (setting [5]) and 0.04 nM at Mcl-1 (setting [10]). Besides, the GI50 with NCI-H929 cells (setting [6]) was 38 ± 11 nM; with A427 cells (setting [7]), 60 ± 24 nM; with K562 cells it was more than 12500 nM. Further, the EC50 in data set [1] was 43 nM; in data set [2], 34 nM; in data set [3], more than 3120 nM. Further, the “H929 Caspase 3/7 maximum activity, fold over vehicle (FoV)” value in data set [1] turned out to be 17 fold. Moreover, in data set [2], the “A427 Caspase 3/7 fold over vehicle (FoV)” value was found to be 15 fold. The “K562 Caspase 3/7 fold over vehicle (FoV)” value in data set [3] is 1.3 fold.

As a reminder, the Ki is the dissociation constant of the complex between target and ligand, obtained from inhibition or displacement. Broadly, the GI50 is the concentration that inhibits growth by half. For orientation: EC50 means the concentration giving half of the maximal effect. High values mean a need for much substance, low ones an effect from little substance.
